The values below come from US20230042599A1, “CELLULOSIC COMPOUNDS AND AGRICULTURAL USES THEREOF” (HELIAE DEVELOPMENT, LLC, priority 2021, published 2023).

For test [1], the system named is rifampicin-resistant strain of a Gram-negative Kosakonia sp. bacterium. Description: Desiccation resistance (viability, CFU) of Kosakonia sp. cells mixed with protectant agents and dried in 96-well plates. Type of test: cell-based. The following applies: after 5 days and 7 days of desiccation stress; protectants at 1% or 0.5% (whole broth and cell pellet undiluted or 2x dilution). The source says: A rifampicin-resistant strain of a Gram-negative Kosakonia sp. bacterium was mixed with water (untreated control or “UTC”), trehalose, carboxymethylcellulose (“CMC”), methylcellulose (“MC”), extracellular polymeric substance from Parachlorella kessleri Accession No. NCMA 202103001 (“EPS”), sodium alginate (“Na-Alginate”), Parachlorella kessleri Accession No. NCMA 202103001 whole broth (“3001 Broth”), or Parachlorella kessleri Accession No. NCMA 202103001 cell pellet after centrifugation (“3001 Pellet”) in 96-well plates. Each of the protectant agents was added undiluted (i.e., at a 1× dilution) or at a 2× dilution (i.e., at […] to 1 part protectant) for whole broth and cell pellets or at a concentration of 1% (i.e., 1 g/100 mL) or 0.5% (i.e., 0.5 g/100 mL) for all other protectants. […]
The liquid medium in the plates was allowed to dry at room temperature inside a desiccation chamber for several days to create desiccation stress in the bacterial cell cultures. […] The bacterial cells were evaluated for survival and growth after 5 days of desiccation stress and after 7 days of desiccation stress.
The colony forming unit (CFU) data in these figures were generated by counting the number of colonies on each spot (see spots on representative plates shown in FIGS. 2A, 2B, and 2C) and using the following formula for quantifying viable cell density: […]

In test [2] the test system is co-culture of Gram-negative Kosakonia pseudosacchari strain JM-387 and Pseudomonas aylmerense strain S1E40. Description: Desiccation resistance (viability, CFU) of a bacterial co-culture mixed with protectant agents. Type of test: cell-based. The following applies: after 3, 5 and 7 days of desiccation stress, protectants at 1% (whole broth and cell pellet undiluted).

Turning to `OC[C@H]1O[C@H](O[C@H]2O[C@H](CO)[C@@H](O)[C@H](O)[C@H]2O)[C@H](O)[C@@H](O)[C@@H]1O` [Trehalose], in test [1], the “protective effect on the Kosakonia sp. cells (viability after desiccation stress)” value is reported as “demonstrated a protective effect”. The “protective effect on the Gram-negative bacterial cells (viability after desiccation stress)” value in test [2] is “demonstrated a protective effect”.
